The target in this assay is T1, human FPTase (Homo sapiens, UniProt P49354+P49356).
T1 construct: made in house
Description: In vitro inhibition of human farnesyl-protein transferase (FPTase). Type of assay: biochemical. Particulars: [3H]-FPP, 100 nM Ras-CVIM, 30 min, read-out: IC50 (inhibitory activity against human FPTase).

Counter-ions that a name gives are not always drawn. A value given as a limit tells only on which side of the number the result lay.

By IC50 is commonly meant the concentration at which inhibition is half-maximal.

On to `N#Cc1ccc(Cn2cncc2CN2CCN(c3cccc(Cl)c3)CC2=O)cc1` [Example 1, 4-(3-Chlorophenyl)-1-[1-(4-cyanobenzyl)-5-imidazolylmethyl]-2-piperazinone hydrochloride], for which the IC50 is at most 10 µM.

The record behind these values is patent publication US5885995A, “Inhibitors of farnesyl-protein transferase” (Merck & Co., Inc., priority 1997, dated 1999).
